Structures can show the parent of a compound that is named as a salt. Where two headings read alike, the source gives them in different places.
Key:
[1] = Dynamic solubility test in water, SGF, FeSSIF, FaSSIF; type: physicochemical; conditions: for pH in clear solution: dihydrochloride
Description: The dynamic solubility of a free base, polymorph forms B, P, F, J and O in water or a biological medium such as Stimulated Gastric Fluid (SGF), Fed State Simulated Intestinal Fluid (FeSSIF) or Fasted State Simulated Intestinal Fluid (FaSSIF) is determined.
0.2 g sodium chloride and 0.1 g Triton X-100 is weighed and placed into a 100 mL volumetric flask. Purified water is added to dissolve. A stir is performed until the solid is completely dissolved. About 135 μL concentrated hydrochloric acid solution (37%, […]) is added, then the pH is adjusted to 1.8 with […] hydrochloric acid or 1 mmoL/L sodium hydroxide. Finally, the volume is fixed with purified water to obtain Stimulated Gastric Fluid (SGF) for later use.
Each of 0.41 mL glacial acetic acid, 0.20 g sodium hydroxide and 0.59 g sodium chloride is weighed and placed to a 50 mL volumetric flask. About 48 mL purified water is added to dissolve, the pH is adjusted to 5.0 with 1 mmoL/L hydrochloric acid or 1 mmoL/L sodium hydroxide, and the volume is fixed with purified water. Then 0.56 g of Simulated Intestinal Fluid powder (SIF powder for short, which is composed of […] with a molar ratio of 4:1) is added, stirred and ultrasonically dissolved to obtain Fed State Simulated Intestinal Fluid (FeSSIF) for later use.
Each of 0.17 g of anhydrous sodium dihydrogen phosphate (NaH2PO4), 0.021 g of sodium hydroxide and 0.31 g of sodium chloride is weighed and placed into a 50 mL volumetric flask. About 48 mL of purified water is added to dissolve, the pH is adjusted to 6.5 with 1 mmoL/L hydrochloric acid or 1 mmoL/L sodium hydroxide, and the volume is fixed with purified water. 0.11 g of SIF powder is added, stirred and ultrasonically dissolved to obtain Fasted State Simulated Intestinal Fluid (FaSSIF) for later use.
Each 30 mg of the free base, and polymorph forms B, P, F, J and O are weighed. 3 mL of purified water, Stimulated Gastric Fluid (SGF), Fed State Simulated Intestinal Fluid (FeSSIF) or Fasted State Simulated Intestinal Fluid (FaSSIF)) is added and oscillated at room temperature. 0.6 mL of suspension is taken each time at a set time point, filtered and separated with a 0.45 μm nylon filter membrane, then XRPD characterization is performed on the solid sample, and the concentration in the clear solution is measured by HPLC.

SPF-grade SD rats = assay: Forced swimming test; type: in vivo; conditions: rats; dihydrochloride
Description: Forced swimming test is used to test the antidepressant effects of polymorph forms P, F, O, B and J.
the swimming test equipment is a transparent glass round cylinder with a height of 46 cm and an inner diameter of 20 cm, the test water temperature is 23° C.˜25° C., the test water depth is 30 cm, and each cylinder is used only once.
300 mg of a polymorph form P is weighed with an electronic balance, and the polymorph form P is dissolved with 0.9% normal saline, and finally the volume is fixed to 100 mL with 0.9% normal saline, at this time, the concentration of dihydrochloride in the experimental reagent is 3 mg/mL for later use.
600 mg of a polymorph form P is weighed with an electronic balance, and the polymorph form P is dissolved with 0.9% normal saline, and finally the volume is fixed to 100 mL with 0.9% normal saline, at this time, the concentration of dihydrochloride in the experimental reagent is 6 mg/mL for later use.
400 mg of desipramine (DMI) is weighed with an electronic balance, DMI is dissolved with 0.9% normal saline, and then the volume is fixed to 100 mL with 0.9% normal saline for later use.
Forty SPF-grade SD rats are prepared and randomly divided into 4 groups, namely vehicle control group, positive control group, experimental group 1 and experimental group 2, with 10 rats in each group. The day before the test, the rats were placed in water for 15 min to pre-swim for 15 min in advance to adapt to the swimming test environment, then taken out and dried, placed in the cage under an infrared lamp for 15 min and then placed in the original cage. After 24 h, a formal swimming test is conducted, that is, the rats are put into water again after 24 h, and the rats are continuously observed for 5 min. The swimming process are needed to be photographed. The drug is administered during two swimming sessions.
The positive control group containing DMI is administered three times, at 23.5 h, 5 h and 1 h before the formal swimming test respectively. Vehicle control group, experimental group 1 and experimental group 2 are each administered only once and subcutaneously within 1 h.
The behaviors of the rats are scored by the scorer every 5 seconds after recording the experiment.
1) Static—when the rat floats on the water surface without struggling and moves only to keep its head above the water surface, the rat is evaluated as static;
2) Swimming—if the rats have obvious swimming behaviors, not only to keep their heads above the water surface, or to travel around in a round cylinder, they are evaluated as swimming;
3) Wall climbing—the rats' front paws have obvious behavior of entering and leaving the water surface, usually, rats are evaluated as wall climbing in front of the round cylinder wall.
All behavioral are scored by a single person. To avoid bias of observation, the scorer only observed and scored without knowing the administration situations. Then multiple test fragments are randomly selected, and the scorer will score the second round to determine the accuracy of observation. The test video is scored again by the second scorer to determine the accuracy between scorers. The second scorer are also required to observe without knowing the drug administration. Finally, in order to determine the effectiveness of the method, the first scorer scored again and recorded the duration of various behaviors with a stopwatch.
SPSSwin11.0 software is used for variance analysis. One-way variance analysis is used for homogeneity of variance, and Dunnett test is used for heterogeneity of variance.

SMILES | solubility compared with the free base [1] | pH in clear solution ([1]; FaSSIF, Time 1) | pH in clear solution ([1]; FaSSIF, Time 2) | pH in clear solution ([1]; FaSSIF, Time 4) | pH in clear solution ([1]; FaSSIF, Time 24) | pH in clear solution ([1]; FeSSIF, Time 1) | pH in clear solution ([1]; FeSSIF, Time 2) | pH in clear solution ([1]; FeSSIF, Time 4) | pH in clear solution ([1]; FeSSIF, Time 24) | pH in clear solution ([1]; SGF, Time 1) | pH in clear solution ([1]; SGF, Time 2) | pH in clear solution ([1]; SGF, Time 4) | pH in clear solution ([1]; SGF, Time 24) | pH in clear solution ([1]; Water, Time 1) | pH in clear solution ([1]; Water, Time 2) | pH in clear solution ([1]; Water, Time 4) | pH in clear solution ([1]; Water, Time 24) | solubility compared with the free base ([1]; pH 1.8) | antidepressant effect in forced swimming test (in words) (SPF-grade SD rats) | Crystal form of insoluble solid sample [1] | other results
CC1CCN(C(=O)c2ccc([C@H](c3cccc(O)c3)N3C[C@@H](C)N(Cc4cccc(F)c4)C[C@@H]3C)cc2)CC1 [Polymorph form B, (4-((R)-((2S,5R)-4-(3-fluorobenzyl)-(2,5-dimethylpiperazine-1-yl)(3-hydroxyphenyl)methyl)phenyl)(4-methylpiperidine-1-yl)methanone dihydrochloride] | significantly improved | 2.5 | 2.6 | 2.5 | 2.3 | 4.8 | 4.8 | 4.8 | 4.6 | 1.5 | 1.5 | 1.5 | 1.5 | 1.8 | 1.8 | 1.8 | 1.7 | close to or slightly improved | effectively reduce the static times and duration of forced swimming in rats | – | –
CC1CCN(C(=O)c2ccc([C@H](c3cccc(O)c3)N3C[C@@H](C)N(Cc4cccc(F)c4)C[C@@H]3C)cc2)CC1 [Polymorph form F, (4-((R)-((2S,5R)-4-(3-fluorobenzyl)-(2,5-dimethylpiperazine-1-yl)(3-hydroxyphenyl)methyl)phenyl)(4-methylpiperidine-1-yl)methanone dihydrochloride] | significantly improved | 3.5 | 4.6 | 4.2 | 4.5 | 4.8 | 4.9 | 4.9 | 4.9 | 1.6 | 1.6 | 1.6 | 1.4 | 1.8 | 1.9 | 1.8 | 1.5 | close to or slightly improved | effectively reduce the static times and duration of forced swimming in rats | – | Crystal form of insoluble solid sample ([1]; pH 1.8): invariability; Crystal form of insoluble solid sample ([1]; pH 5): invariability; Crystal form of insoluble solid sample ([1]; pH 6.5): invariability
CC1CCN(C(=O)c2ccc([C@H](c3cccc(O)c3)N3C[C@@H](C)N(Cc4cccc(F)c4)C[C@@H]3C)cc2)CC1 [Polymorph form J, (4-((R)-((2S,5R)-4-(3-fluorobenzyl)-(2,5-dimethylpiperazine-1-yl)(3-hydroxyphenyl)methyl)phenyl)(4-methylpiperidine-1-yl)methanone dihydrochloride] | significantly improved | 2.8 | 3.0 | 2.8 | 2.6 | 4.8 | 5.0 | 4.9 | 4.7 | 1.7 | 1.5 | 1.5 | 1.6 | 1.8 | 1.7 | 1.7 | 1.4 | close to or slightly improved | effectively reduce the static times and duration of forced swimming in rats | amorphism | –
CC1CCN(C(=O)c2ccc([C@H](c3cccc(O)c3)N3C[C@@H](C)N(Cc4cccc(F)c4)C[C@@H]3C)cc2)CC1 [Polymorph form O, (4-((R)-((2S,5R)-4-(3-fluorobenzyl)-(2,5-dimethylpiperazine-1-yl)(3-hydroxyphenyl)methyl)phenyl)(4-methylpiperidine-1-yl)methanone dihydrochloride] | significantly improved | 2.2 | 2.0 | 2.4 | 2.2 | 5.0 | 4.8 | 5.0 | 5.2 | 1.5 | 1.6 | 1.6 | 1.7 | 1.9 | 1.8 | 1.9 | 1.4 | close to or slightly improved | effectively reduce the static times and duration of forced swimming in rats | invariability | Solubility [1]: 6.2 mg/mL

Source: patent publication US10730851B2, “Polymorph of triaryldimethylpiperazine dihydrochloride and preparation method and application thereof” (priority 2016, dated 2020)
